In ChEMBL document CHEMBL4428084, “Discovery and Optimization of N-(4-(3-Aminophenyl)thiazol-2-yl)acetamide as a Novel Scaffold Active against Sensitive and Resistant Cancer Cells” (J Med Chem, 2016) one finds viability and Activity data, which are given here for 34 compounds.

Assay [1] deals with A-375. As to the kind of experiment: Cytotoxicity against vemurafenib-sensitive human A375 cells assessed as cell viability at 10 uM after 48 hrs by trypan blue exclusion assay relative to control. It counts as functional. The following applies: A-375, 48 h, read-out: Activity.
Assay [2] concerns MIA PaCa-2. In words: Cytotoxicity against gemcitabine-resistant human MIAPaCa2 cells assessed as cell viability at 10 uM after 48 hrs by trypan blue exclusion assay relative to control. Type of assay: functional. Conditions: MIA PaCa-2, 48 h, read-out: Activity.
A short description of assay [3]: Cytotoxicity against vemurafenib-resistant human A375 R5C3 cells assessed as cell viability at 10 uM after 48 hrs by trypan blue exclusion assay relative to control. It counts as functional. The following applies: A-375, 48 h, read-out: Activity.
Assay [4] in a line: Cytotoxicity against vemurafenib-resistant human A375 RIV cells assessed as cell viability at 10 uM after 48 hrs by trypan blue exclusion assay relative to control. It counts as functional. Conditions: A-375, 48 h, read-out: Activity.
The test system of assay [5] is K562. In words: Cytotoxicity against imatinib-sensitive human K562 cells assessed as cell viability at 10 uM after 48 hrs by trypan blue exclusion assay relative to control. Type of assay: functional. Conditions: K562, 48 h, read-out: Activity.
Assay [6] relates to K562. As to the kind of experiment: Cytotoxicity against imatinib-resistant human K562 cells assessed as cell viability at 10 uM after 48 hrs by trypan blue exclusion assay relative to control. Type of assay: functional. Conditions: K562, 48 h, read-out: Activity.
In assay [7] the test system is BXPC-3. In words: Cytotoxicity against gemcitabine-sensitive human BxPC3 cells assessed as cell viability at 10 uM after 48 hrs by trypan blue exclusion assay relative to control. Type of assay: functional. Conditions: BXPC-3, 48 h, read-out: Activity.
Assay [8] in a line: Cytotoxicity against vemurafenib-resistant human A375 RIV cells assessed as cell viability at 1 uM after 48 hrs by trypan blue exclusion assay relative to control. Conditions: A-375, 48 h, read-out: Activity. Type of assay: functional.
The test system of assay [9] is A-375. In words: Cytotoxicity against vemurafenib-sensitive human A375 cells assessed as cell viability at 5 uM after 48 hrs by trypan blue exclusion assay relative to control. It counts as functional. The following applies: A-375, 48 h, read-out: Activity.
Assay [10] can be described thus: Cytotoxicity against vemurafenib-resistant human A375 R5C3 cells assessed as cell viability at 5 uM after 48 hrs by trypan blue exclusion assay relative to control. Type of assay: functional. The following applies: A-375, 48 h, read-out: Activity.
Assay [11] in a line: Cytotoxicity against vemurafenib-resistant human A375 RIV cells assessed as cell viability at 5 uM after 48 hrs by trypan blue exclusion assay relative to control. It counts as functional. Conditions: A-375, 48 h, read-out: Activity.
Assay [12] has as its system A-375. In words: Induction of apoptosis in human A375 cells assessed as cells with active caspase-3 at 1 uM after 12 hrs by flow cytometry (reference value: 4.16%). It counts as functional. Background: In flow cytometry, cells or beads pass a laser one at a time.
For assay [13], the system named is MIA PaCa-2. As to the kind of experiment: Cytotoxicity against gemcitabine-resistant human MIAPaCa2 cells assessed as cell viability at 0.1 uM after 48 hrs by trypan blue exclusion assay relative to control. The following applies: MIA PaCa-2, 48 h, read-out: Activity. Type of assay: functional.
For assay [14], the system named is BXPC-3. As to the kind of experiment: Cytotoxicity against gemcitabine-sensitive human BxPC3 cells assessed as cell viability at 0.1 uM after 48 hrs by trypan blue exclusion assay relative to control. Conditions: BXPC-3, 48 h, read-out: Activity. Type of assay: functional.
The test system of assay [15] is K562. In words: Cytotoxicity against imatinib-sensitive human K562 cells assessed as cell viability at 1 uM after 48 hrs by trypan blue exclusion assay relative to control. Conditions: K562, 48 h, read-out: Activity.
Assay [16] concerns K562. As to the kind of experiment: Cytotoxicity against imatinib-resistant human K562 cells assessed as cell viability at 1 uM after 48 hrs by trypan blue exclusion assay relative to control. The following applies: K562, 48 h, read-out: Activity.

For `CC(=O)Nc1nc(-c2cccc(NS(=O)(=O)c3ccc(-c4ccc(C)cc4)cc3)c2)cs1`, the viability at 10 µM in the assay on A-375 [1] is 26.3%.

`CC(=O)Nc1nc(-c2cccc(NS(=O)(=O)c3ccc(I)cc3)c2)cs1`: the viability at 10 µM in the assay with MIA PaCa-2 [2] was 15.8%; in the assay with A-375 [1] it was < 1%; in assay [3] it was 8.4%; in [4], 10%; with K562 [5], 15%; with K562 [6], 27%. Further, in the assay on BXPC-3 [7], the viability at 10 µM was < 1%.

Regarding `CC(=O)Nc1nc(-c2cccc(NS(=O)(=O)c3cccc4cccnc34)c2)cs1`, the viability at 10 µM with A-375 [1] came to 59.5%.

As for `CC(=O)Nc1nc(-c2cccc(NC(=O)c3ccc4ccccc4c3)c2)cs1`, the viability at 10 µM in the assay on MIA PaCa-2 [2] amounted to 7%; with A-375 [1] it was 18.3%; in [3], 63.8%; in [4], 30%; with K562 [5], 53.9%; in the assay with K562 [6], 89.7%. The viability at 10 µM in the assay on BXPC-3 [7] came out at 1.5%.

As to `CC(=O)Nc1nc(-c2cccc(NS(=O)(=O)c3ccc(C(C)(C)C)cc3)c2)cs1`, the viability at 10 µM with MIA PaCa-2 [2] was < 1%; with A-375 [1], 1.5%; in [3], 51.1%; in assay [4], < 1%; with K562 [5] it was 19.4%; in the assay with K562 [6], 35.1%. For the same compound, the viability at 10 µM with BXPC-3 [7] was < 1%. For the same compound, in assay [8], the viability at 1 µM was 39.4%.

For the compound `CC(=O)Nc1nc(-c2cccc(N)c2)cs1`, in the assay with A-375 [1], the viability at 10 µM came to 38.4%.

Take `CCc1ccc(S(=O)(=O)Nc2cccc(-c3csc(NC(C)=O)n3)c2)cc1`: the viability at 10 µM came out at 40.7% in the assay on MIA PaCa-2 [2]; 7.5% in the assay with A-375 [1]; 80.1% in assay [3]; 26.7% in assay [4]; 12.8% with K562 [5]; 27% in the assay on K562 [6]. Further, the viability at 10 µM with BXPC-3 [7] came out at 21%.

`CC(=O)Nc1nc(-c2cccc(NS(=O)(=O)c3ccc(C)s3)c2)cs1`: in the assay with A-375 [1], the viability at 10 µM came to 37.5%.

As for `CCCS(=O)(=O)Nc1ccc(F)c(C(=O)c2c[nH]c3ncc(-c4ccc(Cl)cc4)cc23)c1F` [VEMURAFENIB], the viability at 5 µM in the assay with A-375 [9] was 44%; in [10], 101%; in assay [11], 76.7%.

On to `CC(=O)Nc1nc(-c2cccc(NS(=O)(=O)c3cccc4c3ccn4C)c2)cs1`, for which, in the assay on A-375 [1], the viability at 10 µM was 60.7%.

Consider `CC(=O)Nc1nc(-c2cccc(NS(=O)(=O)c3ccc4oc(=O)ccc4c3)c2)cs1`, for which the viability at 10 µM with A-375 [1] was 65.5%.

In the case of `CC(=O)Nc1nc(-c2cccc(NS(=O)(=O)c3cn(C)cn3)c2)cs1`, the viability at 10 µM in the assay on A-375 [1] worked out at 36.8%.

As to `CN[C@@H]1C[C@H]2O[C@@](C)([C@@H]1OC)n1c3ccccc3c3c4c(c5c6ccccc6n2c5c31)C(=O)NC4` [STAUROSPORINE], the Activity in the assay with A-375 [12] is 46.95%.

Turning to `CC(=O)Nc1nc(-c2cccc(NS(=O)(=O)c3cccc4ccccc34)c2)cs1`, the viability at 10 µM with A-375 [1] is 20.4%.

Take `CC(=O)Nc1nc(-c2cccc(NS(=O)(=O)c3ccc4c(ccn4C)c3)c2)cs1`: the viability at 10 µM with A-375 [1] was found to be 46.5%.

With `CC(=O)Nc1nc(-c2cccc(NS(=O)(=O)c3ccc4ccccc4c3)c2)cs1`, the viability at 10 µM came out at 7% in the assay with MIA PaCa-2 [2]; 3.3% in the assay on A-375 [1]; 49.6% in assay [3]; 33.3% in assay [4]; 31% in the assay with K562 [5]; 25.6% in the assay on K562 [6]. Moreover, the viability at 10 µM in the assay on BXPC-3 [7] stood at 0.6%.

For `CC(=O)Nc1nc(-c2cccc(NS(=O)(=O)c3ccc(-c4ccccc4)cc3)c2)cs1`, the viability at 10 µM in the assay on A-375 [1] came out at 33.9%.

Regarding `CC(=O)Nc1nc(-c2cccc(NS(=O)(=O)c3ccc4c(c3)OCCO4)c2)cs1`, the viability at 10 µM in the assay on A-375 [1] was determined as 29.6%.

In the case of `CCCCc1ccc(S(=O)(=O)Nc2cccc(-c3csc(NC(C)=O)n3)c2)cc1`, the viability at 10 µM in the assay on MIA PaCa-2 [2] was < 1%; in the assay with A-375 [1], 2.2%; in assay [3], 9.9%; in assay [4], 26.7%; in the assay on K562 [5] it was 51.6%; in the assay on K562 [6] it was 60.9%. In the assay on BXPC-3 [7], the viability at 10 µM was 4.3%.

For the compound `CCCCCCCC(=O)Nc1cccc(-c2csc(NC(C)=O)n2)c1`, in the assay with A-375 [1], the viability at 10 µM worked out at 40%.

In the case of `CCCCCc1ccc(S(=O)(=O)Nc2cccc(-c3csc(NC(C)=O)n3)c2)cc1`, the viability at 10 µM in the assay with MIA PaCa-2 [2] is < 1%; in the assay with A-375 [1] it was 2.8%; in assay [3], 15.6%; in [4], < 1%; with K562 [5], 51%; with K562 [6], 72.7%. For the same compound, the viability at 10 µM in the assay on BXPC-3 [7] was < 1%. In addition, the viability at 1 µM in assay [8] worked out at 27.7%.

Regarding `Nc1ccn([C@@H]2O[C@H](CO)[C@@H](O)C2(F)F)c(=O)n1` [GEMCITABINE], the viability at 0.1 µM in the assay on MIA PaCa-2 [13] amounted to 86.5%; in the assay on BXPC-3 [14], 2%.

As to `CC(=O)Nc1nc(-c2cccc(NC(=O)c3ccco3)c2)cs1`, in the assay on A-375 [1], the viability at 10 µM turned out to be 29.2%.

As to `CC(=O)Nc1nc(-c2cccc(NS(=O)(=O)c3c[nH]cn3)c2)cs1`, in the assay with A-375 [1], the viability at 10 µM was 45.7%.

On to `CC(=O)Nc1nc(-c2cccc(NS(=O)(=O)c3ccccc3)c2)cs1`, for which the viability at 10 µM in the assay with A-375 [1] came to 72.2%.

For the compound `CCCCC#Cc1ccc(S(=O)(=O)Nc2cccc(-c3csc(NC(C)=O)n3)c2)cc1`, the viability at 10 µM in the assay on MIA PaCa-2 [2] is < 1%; in the assay with A-375 [1] it was < 1%; in [3] it was 7.8%; in assay [4], 10%; in the assay with K562 [5], 26.9%; with K562 [6], 35.1%. Besides, in the assay with BXPC-3 [7], the viability at 10 µM was < 1%.

For `CC(=O)Nc1nc(-c2cccc(NS(=O)(=O)c3cc4ccccc4s3)c2)cs1`, the viability at 10 µM in the assay on A-375 [1] worked out at 29.2%.

For the compound `CC(=O)Nc1nc(-c2cccc(NS(=O)(=O)c3cccs3)c2)cs1`, the viability at 10 µM with A-375 [1] came out at 29.6%.

Turning to `CC(=O)Nc1nc(-c2cccc([N+](=O)[O-])c2)cs1`, in the assay with A-375 [1], the viability at 10 µM worked out at 47.3%.

For the compound `CC(=O)Nc1nc(-c2cccc(NS(=O)(=O)c3ccc(C)cc3)c2)cs1`, the viability at 10 µM in the assay on MIA PaCa-2 [2] was found to be 49.1%; in the assay on A-375 [1] it was 19.8%; in [3] it was 75.9%; in assay [4], 53.3%; in the assay on K562 [5], 15.3%; with K562 [6], 38.5%. In addition, in the assay with BXPC-3 [7], the viability at 10 µM was determined as 21.6%.

As to `CC(=O)Nc1nc(-c2cccc(NS(=O)(=O)c3ccc4c(c3)CCC4)c2)cs1`, the viability at 10 µM in the assay on A-375 [1] came out at 26.3%.

For `CC(=O)Nc1nc(-c2cccc(NS(=O)(=O)c3sc(C)nc3C)c2)cs1`, the viability at 10 µM with A-375 [1] came to 29.2%.

As for `Cc1ccc(NC(=O)c2ccc(CN3CCN(C)CC3)cc2)cc1Nc1nccc(-c2cccnc2)n1` [IMATINIB], the viability at 1 µM in the assay with K562 [15] is 9.7%; in the assay with K562 [16], 85.5%.

`CC(=O)Nc1nc(-c2cccc(NS(=O)(=O)c3cccc(C)c3)c2)cs1`: in the assay on A-375 [1], the viability at 10 µM came to 51.2%.
